Source: patent US10168342B2, “Lipid probes and uses thereof” (THE SCRIPPS RESEARCH INSTITUTE, priority 2015, dated 2019)
Read-outs that look alike come from different tables or passages of the source.

Columns and labels:
[1] = target: T1, AEA-DA lipid probe targets in Neuro2a cells (Mus musculus, UniProt P81117)
T1 sequence (P81117 25-420): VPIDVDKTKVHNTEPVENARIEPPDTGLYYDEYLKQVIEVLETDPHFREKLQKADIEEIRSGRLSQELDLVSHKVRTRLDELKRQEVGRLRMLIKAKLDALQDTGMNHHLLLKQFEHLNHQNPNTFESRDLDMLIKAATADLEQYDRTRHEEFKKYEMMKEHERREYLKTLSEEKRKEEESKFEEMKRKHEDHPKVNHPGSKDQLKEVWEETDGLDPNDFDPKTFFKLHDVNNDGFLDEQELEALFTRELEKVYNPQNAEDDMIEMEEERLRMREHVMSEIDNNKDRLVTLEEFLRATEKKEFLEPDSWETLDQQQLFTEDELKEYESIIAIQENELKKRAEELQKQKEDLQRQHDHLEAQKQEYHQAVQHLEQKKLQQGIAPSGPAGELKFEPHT

[2] = target: T2, AEA-DA lipid probe targets in Neuro2a cells (Mus musculus, UniProt O89023)
T2 sequence (O89023 195-562): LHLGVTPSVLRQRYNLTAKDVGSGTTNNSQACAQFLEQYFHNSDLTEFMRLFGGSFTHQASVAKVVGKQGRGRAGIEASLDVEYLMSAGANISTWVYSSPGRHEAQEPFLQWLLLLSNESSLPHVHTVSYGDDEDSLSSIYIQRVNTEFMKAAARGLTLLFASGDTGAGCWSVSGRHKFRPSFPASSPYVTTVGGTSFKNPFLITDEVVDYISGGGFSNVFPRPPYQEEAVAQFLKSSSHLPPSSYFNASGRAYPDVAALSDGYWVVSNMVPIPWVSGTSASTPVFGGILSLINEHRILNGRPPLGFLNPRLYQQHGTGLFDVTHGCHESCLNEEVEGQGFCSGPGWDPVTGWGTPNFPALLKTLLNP

[3] = target: T3, AEA-DA lipid probe targets in Neuro2a cells (Mus musculus, UniProt P62492)
T3 sequence (P62492 1-216): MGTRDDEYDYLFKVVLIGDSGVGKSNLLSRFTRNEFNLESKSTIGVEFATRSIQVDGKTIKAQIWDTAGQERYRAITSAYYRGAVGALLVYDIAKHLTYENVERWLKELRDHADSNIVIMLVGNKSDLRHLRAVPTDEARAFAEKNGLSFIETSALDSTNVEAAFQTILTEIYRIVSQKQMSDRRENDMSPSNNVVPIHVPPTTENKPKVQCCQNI

[4] = target: AEA-DA lipid probe targets in Neuro2a cells (Mus musculus, UniProt P53994)
Chain of AEA-DA lipid probe targets in Neuro2a cells (Mus musculus, UniProt P53994) (P53994 whole entry): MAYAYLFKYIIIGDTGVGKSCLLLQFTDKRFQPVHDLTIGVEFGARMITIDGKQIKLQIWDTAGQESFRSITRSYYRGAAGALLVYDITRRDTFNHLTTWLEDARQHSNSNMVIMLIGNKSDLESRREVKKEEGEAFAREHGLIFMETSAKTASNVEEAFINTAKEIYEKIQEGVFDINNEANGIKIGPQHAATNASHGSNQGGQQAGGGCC

[5] = target: T4, AEA-DA lipid probe targets in Neuro2a cells (Mus musculus, UniProt Q8R2Y8)
T4 sequence (Q8R2Y8 1-181): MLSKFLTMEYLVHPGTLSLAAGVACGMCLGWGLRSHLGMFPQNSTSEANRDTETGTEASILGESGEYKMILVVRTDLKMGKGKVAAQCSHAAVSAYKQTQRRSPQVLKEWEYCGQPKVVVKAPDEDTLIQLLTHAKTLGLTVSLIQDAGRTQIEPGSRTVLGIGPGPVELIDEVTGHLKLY

[6] = target: T5, AEA-DA lipid probe targets in Neuro2a cells (Mus musculus, UniProt Q61425)
T5 sequence (Q61425 13-314): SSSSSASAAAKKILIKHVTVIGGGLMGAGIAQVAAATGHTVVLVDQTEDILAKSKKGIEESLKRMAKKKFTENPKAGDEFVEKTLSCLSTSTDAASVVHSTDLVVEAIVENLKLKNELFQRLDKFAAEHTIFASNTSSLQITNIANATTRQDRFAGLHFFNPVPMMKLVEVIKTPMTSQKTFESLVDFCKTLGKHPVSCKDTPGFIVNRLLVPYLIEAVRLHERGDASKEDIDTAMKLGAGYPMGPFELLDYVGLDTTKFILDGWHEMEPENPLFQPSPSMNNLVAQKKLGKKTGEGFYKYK

[7] = target: T6, AEA-DA lipid probe targets in Neuro2a cells (Mus musculus, UniProt Q02819)
T6 sequence (Q02819 26-459): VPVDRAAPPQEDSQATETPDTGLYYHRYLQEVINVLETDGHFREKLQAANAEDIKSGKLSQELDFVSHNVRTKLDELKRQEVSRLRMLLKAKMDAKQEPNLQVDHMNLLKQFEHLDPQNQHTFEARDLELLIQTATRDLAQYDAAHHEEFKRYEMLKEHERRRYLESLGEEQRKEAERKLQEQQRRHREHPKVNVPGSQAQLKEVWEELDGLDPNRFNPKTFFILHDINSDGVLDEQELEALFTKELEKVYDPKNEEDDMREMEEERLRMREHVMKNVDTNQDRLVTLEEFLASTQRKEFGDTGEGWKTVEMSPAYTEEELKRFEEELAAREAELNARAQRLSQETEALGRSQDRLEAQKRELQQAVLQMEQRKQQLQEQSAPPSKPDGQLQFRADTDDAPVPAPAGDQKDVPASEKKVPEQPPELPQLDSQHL

[8] = target: T7, AEA-DA lipid probe targets in Neuro2a cells (Mus musculus, UniProt Q9CQQ7)
T7 sequence (Q9CQQ7 43-256): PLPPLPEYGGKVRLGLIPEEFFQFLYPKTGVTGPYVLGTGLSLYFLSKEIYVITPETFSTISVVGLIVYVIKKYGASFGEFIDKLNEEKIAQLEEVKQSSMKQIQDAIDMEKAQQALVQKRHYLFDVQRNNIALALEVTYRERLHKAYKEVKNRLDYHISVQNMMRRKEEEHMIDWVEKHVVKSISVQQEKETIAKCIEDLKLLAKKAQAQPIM

[9] = target: T8, AEA-DA lipid probe targets in Neuro2a cells (Mus musculus, UniProt Q62186)
T8 sequence (Q62186 24-172): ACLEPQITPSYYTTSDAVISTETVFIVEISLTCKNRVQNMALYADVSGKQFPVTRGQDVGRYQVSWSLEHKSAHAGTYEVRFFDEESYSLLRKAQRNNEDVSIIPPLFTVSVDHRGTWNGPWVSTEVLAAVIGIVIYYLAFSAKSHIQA

How did the “SILAC ratio, Nucb2” value ([1]; competitor 200 μM) turn out when CCCCC/C=C\C/C=C\C/C=C\C/C=C\CCCC(=O)NCCO [AEA, anandamide, reference compound] was run?
The value was 1.5.

And the “SILAC ratio Tpp1” value ([2]; competitor 200 μM)?
The value was 1.5.

And the “SILAC ratio, Rab11a” value ([3]; competitor 200 μM)?
Its value is 1.6.

And the “SILAC ratio Rab2a” value ([4]; competitor 200 μM)?
The value was 1.3.

And the “SILAC ratio Ptrh2” value ([5]; competitor 200 μM)?
The value was 1.5.

What about the “SILAC ratio Hadh” value ([6]; competitor 200 μM) of the same molecule?
The value was 1.2.

What about the “SILAC ratio, Nucb1” value ([7]; competitor 200 μM) of the same molecule?
Its value is 1.5.

And the “SILAC ratio Atp5f1” value ([8]; competitor 200 μM)?
Its value is 1.5.

What about the “SILAC ratio, Ssr4” value ([9]; competitor 200 μM) of the same molecule?
Its value is 1.8.

Which results are given for O=C(/C=C/c1cccnc1)NCCCCC1CCN(C(=O)c2ccccc2)CC1 [FK-866, reference compound]?
SILAC ratio, Nucb2 ([1]; competitor 25 μM): 1.1; SILAC ratio Tpp1 ([2]; competitor 25 μM): 1.0; SILAC ratio, Rab11a ([3]; competitor 25 μM): 1.2; SILAC ratio Rab2a ([4]; competitor 25 μM): 1.2; SILAC ratio Ptrh2 ([5]; competitor 25 μM): 1.0; SILAC ratio Hadh ([6]; competitor 25 μM): 1.2; interaction with NUCB1 protein ([7]; FIG. 16I and Table 4): did not interact; SILAC ratio, Nucb1 ([7]; competitor 25 μM): 1.2; SILAC ratio Atp5f1 ([8]; competitor 25 μM): 1.1; SILAC ratio, Ssr4 ([9]; competitor 25 μM): 1.2

Which results are given for CN1CCN(C(=O)c2c(-c3ccccc3)c3cc([N+](=O)[O-])ccc3n2C)CC1 [KML110, (1-Methyl-5-nitro-3-phenyl-1H-indol-2-yl)(4-methylpiperazin-1-yl)methanone]?
SILAC ratio, Nucb2 ([1]; competitor 25 μM): 2.0; SILAC ratio Tpp1 ([2]; competitor 25 μM): 1.5; SILAC ratio, Rab11a ([3]; competitor 25 μM): 1.6; SILAC ratio Rab2a ([4]; competitor 25 μM): 1.3; SILAC ratio Ptrh2 ([5]; competitor 25 μM): 1.0; SILAC ratio Hadh ([6]; competitor 25 μM): 1.2; SILAC ratio, Nucb1 ([7]; competitor 25 μM): 3.4; SILAC ratio Atp5f1 ([8]; competitor 25 μM): 1.6; SILAC ratio, Ssr4 ([9]; competitor 25 μM): 1.5

What does the source list for CN1CCN(C(=O)c2[nH]c3ccc([N+](=O)[O-])cc3c2-c2ccccc2)CC1 [MJN228, (4-Methylpiperazin-1-yl)(5-nitro-3-phenyl-1H-indol-2-yl)methanone]?
SILAC ratio, Nucb2 ([1]; competitor 10 μM): 1.4; SILAC ratio, Nucb2 ([1]; competitor 25 μM): 1.6; SILAC ratio, Nucb2 ([1]; competitor 50 μM): 2.1; SILAC ratio, Nucb2 ([1]; competitor 100 μM): 2.9; SILAC ratio Tpp1 ([2]; competitor 10 μM): 1.4; SILAC ratio Tpp1 ([2]; competitor 25 μM): 1.4; SILAC ratio Tpp1 ([2]; competitor 50 μM): 1.8; SILAC ratio Tpp1 ([2]; competitor 100 μM): 2.0; SILAC ratio, Rab11a ([3]; competitor 10 μM): 1.2; SILAC ratio, Rab11a ([3]; competitor 25 μM): 1.6; SILAC ratio, Rab11a ([3]; competitor 50 μM): 1.9; SILAC ratio, Rab11a ([3]; competitor 100 μM): 2.4; SILAC ratio Rab2a ([4]; competitor 10 μM): 1.4; SILAC ratio Rab2a ([4]; competitor 25 μM): 1.5; SILAC ratio Rab2a ([4]; competitor 50 μM): 1.6; SILAC ratio Rab2a ([4]; competitor 100 μM): 1.6; SILAC ratio Ptrh2 ([5]; competitor 10 μM): 1.1; SILAC ratio Ptrh2 ([5]; competitor 25 μM): 1.0; SILAC ratio Ptrh2 ([5]; competitor 50 μM): 1.2; SILAC ratio Ptrh2 ([5]; competitor 100 μM): 1.1; SILAC ratio Hadh ([6]; competitor 10 μM): 1.3; SILAC ratio Hadh ([6]; competitor 25 μM): 1.3; SILAC ratio Hadh ([6]; competitor 50 μM): 1.1; SILAC ratio Hadh ([6]; competitor 100 μM): 1.3; concentration at which lipid probe binding to NUCB1 is inhibited (as low as) ([7]; Neuro2a cells, AEA-DA 5 μM): 10 µM; concentration of near-maximal inhibition of lipid probe binding to NUCB1 ([7]; Neuro2a cells, AEA-DA 5 μM): ~25 µM; SILAC ratio, Nucb1 ([7]; competitor 10 μM): 3.1; SILAC ratio, Nucb1 ([7]; competitor 25 μM): 4.7; SILAC ratio, Nucb1 ([7]; competitor 50 μM): 5.6; SILAC ratio, Nucb1 ([7]; competitor 100 μM): 6.2; SILAC ratio Atp5f1 ([8]; competitor 10 μM): 1.2; SILAC ratio Atp5f1 ([8]; competitor 25 μM): 1.5; SILAC ratio Atp5f1 ([8]; competitor 50 μM): 1.6; SILAC ratio Atp5f1 ([8]; competitor 100 μM): 1.8; SILAC ratio, Ssr4 ([9]; competitor 10 μM): 1.5; SILAC ratio, Ssr4 ([9]; competitor 25 μM): 1.9; SILAC ratio, Ssr4 ([9]; competitor 50 μM): 2.4; SILAC ratio, Ssr4 ([9]; competitor 100 μM): 2.6

Which “SILAC ratio, Nucb2” value ([1]; competitor 25 μM) does the source give for C=CCN(C)CCCCCCOc1ccc(C(=O)c2ccc(Br)cc2)c(F)c1 [Ro 48-8071, reference compound] here?
The value was 0.8.

What about the “SILAC ratio Tpp1” value ([2]; competitor 25 μM) of the same molecule?
The value was 0.8.

What about the “SILAC ratio, Rab11a” value ([3]; competitor 25 μM) of the same molecule?
The value was 1.3.

What about the “SILAC ratio Rab2a” value ([4]; competitor 25 μM) of the same molecule?
The value was 1.1.

What about the “SILAC ratio Ptrh2” value ([5]; competitor 25 μM) of the same molecule?
The value was 0.9.

And the “SILAC ratio Hadh” value ([6]; competitor 25 μM)?
The value was 0.8.

And the “SILAC ratio, Nucb1” value ([7]; competitor 25 μM)?
Its value is 0.9.

What about the “SILAC ratio Atp5f1” value ([8]; competitor 25 μM) of the same molecule?
Its value is 1.0.

What about the “SILAC ratio, Ssr4” value ([9]; competitor 25 μM) of the same molecule?
Its value is 1.2.
